In patent publication US7812142B2, “Pentose derivatives as anti-hyperglycemic drugs” (Yissum Research Development Company of the Hebrew …, priority 2002, dated 2010):

Experiments:
[1] = tested on: glucose uptake in cultured cells; assay: In vitro glucose uptake / hexose transport in cultured cells with xylose derivatives (Table 2); type: cell-based; details: for EC50 / ECmax: EC = Effective concentration
Description: Table 2 summarizes in vitro results obtained with some of these newly synthesized xylose derivatives.
(§1) Uptake assay of the tritiated glucose analogue, 2-deoxy-D-glucose, is routinely performed as described in [Sasson, S. and Cerasi, E. (1986) J. Biol. Chem. 261, 16827-16833].
All new compounds are screened and tested first in various insulin-sensitive cell cultures used routinely in the laboratory (skeletal muscle and adipose cell lines). In addition these drugs were tested in non-insulin-sensitive cells such as primary cultures of bovine and porcine vascular endothelial and smooth muscle cells. Active compounds were tested ex-vivo on isolated rat soleus muscles. All cell cultures and tissues were maintained under hyperglycemic condition prior to the addition of the test compounds. Dose-response and time-course experiments determine which of the derivatives are subsequently tested in animal models. For each potent compound the total cell content and plasma membrane abundance of GLUT-1 and GLUT-4 was determined, as described above. The same biotinylation technique was employed to determine the total and plasma membrane content of both transporters in isolated mouse or rat soleus muscles treated with potent compounds.

[2] = tested on: streptozotocin-diabetic C57/black mice; assay: Anti-hyperglycemic activity in streptozotocin-diabetic mice; type: in vivo, mouse
Description: FIG. 12: Anti-hyperglycemic activity of EH-36 in streptozotocin-diabetic mice. Mice were treated with EH-36 or the vehicle alone (sesame oil, bold lines), and their blood glucose levels determined at the indicated time intervals. Male C57/black mice were made hyperglycemic by 5 repeated daily injections of streptozotocin (i.p. 50 mg/Kg body weight). EH-36 was dissolved in sesame oil (4 mg/ml) and injected s.c (400 μg) twice a day.
FIG. 13: Anti-hyperglycemic activity of EH-36 in streptozotocin-diabetic mice. Mice were treated with EH-36 (as described in the legend to FIG. 12) or the vehicle alone (sesame oil, bold lines), and their blood glucose levels were determined at the indicated time intervals. C57/black mice were made diabetic as described in the legend to FIG. 12.
EH-36 was tested for its potential anti-hyperglycemic activity in an animal model of diabetes. Male C57/black mice were made diabetic by daily i.p. injections of streptozotocin (50 mg/Kg) for 5 days. After 10 days the fasting blood glucose of these mice was above 300 mg/dL as compared to 80-130 mg/dL of control mice. Unlike a single and high dose injection of streptozotocin, which produces an animal model for Type 1 diabetes, the repeated low-dose injections produce a model that more closely resembles Type 2 diabetes. (Fraser, R. B., Rowden, G., Colp, P, And Wright, J. R. Jr.: Immunophenotyping of insulitis in control and essential fatty aid deficient mice treated with multiple low-dose streptozotocin. Diabetologia, 40:1263-1268, 1997).
EH-36 was dissolved in sesame oil (4 mg/ml) and injected into Streptozotocin-diabetic mice (s.c. 400 μg, twice a day at 08 and 18 hrs). Blood was withdrawn from the tip of the tails and glucose levels were measured with a glucometer.

[3] = tested on: non-diabetic mice; assay: Blood glucose level of non-diabetic mice; details: mouse, in vivo
[4] = tested on: streptozotocin-diabetic mice; assay: Glucose tolerance test (GTT) of diabetic mice; type: in vivo, mouse
Description: FIG. 14: Glucose tolerance test (GTT) of diabetic mice treated with sesame oil or EH-36 for 9 days, as described in the legend to FIG. 12. On the morning of the 10th day and following an overnight fast the mice received glucose (2 gr/Kg body weight) by i.p. injection, Blood glucose was determined for 3 hr at 30 min intervals. The glucose data were plotted for each animal and the area under the curve (AUC) was calculated.
In another set of experiments similar diabetic mice were treated with the oil or EH-36 (1.5 mg, s.c. twice a day) for 9 days. On the morning of the 10th day and following an overnight fast the mice were subjected to a glucose tolerance test (GTT). The mice received D-glucose by i.p. injections (2 gr/kg body weight). Blood glucose as monitored for 3 hr at 30 min intervals.

[5] = Serum level of EH-36 in rats by HPLC; type: in vivo, rat; details: 16 mg/day in sesame oil s.c. for 3 days, serum on fourth day, preliminary
Description: Extract aliquots (30 μl) were analyzed by reverse phase HPLC in a 150×4.6 mm, 3μ ODS Hypersil® column (Thermohypersil-Keystone, Bellfonte, Pa.) connected to an L-4200 UV-Vis detector (272 nm). Elution was at a flow rate of 1.5 ml/min with water and acetonitrile gradient: the initial solvent mixture was 30% water:70% acetonitrile:. A convex gradient over 20 min then followed to 100% acetonitrile.
The pharmacokinetic parameters of EH-36 were determined by the following procedure. Rats (3 per group per time point) were anesthetized and their blood collected from the portal vein. The serum was separated and extracted with chloroform. The extract was dried and redissolved in a small volume of chloroform and separated by HPLC and identified by UV absorption. The animals were treated with 16 mg/day (in sesame oil, s.c.) for 3 days. On the fourth day the animals were sacrificed and serum was isolated, extracted and separated by HPLC. There was a distinct peak of EH-36 corresponding to 1.01 mg/ml EH-36. To verify that this peak corresponds to EH-36 a known quantity of this compound was added to a serum sample taken from the EH-36-treated rats. Following extraction and HPLC analysis the only peak that was intensified was that corresponding to EH-36. […]

[6] = Solubility of EH-36; type: physicochemical; details: e.g., DMSO, ethanol and oil
[7] = tested on: L6 myotubes; assay: dGlc uptake assay in L6 myotubes; type: cell-based, rat; details: for effect of PI3-kinase inhibitor LY-249002 on the substance's stimulation of hexose transport: 60 μM inhibitor, 23.0 mM glucose (FIG. 11A), EH-40 data not shown
Description: (§2) FIG. 10: Western blot depicting effect of 3-O-propyl-D-xylose (EH-114), and 1,3-O-dimethylxylopyranoside (EH-101) on the total cell content and plasma membrane abundance of GLUT-4 in the absence or presence of insulin. L6 myotubes were maintained for 48 hr at 23 mM Glucose. The cells were than washed and received fresh medium containing the indicated additions and incubated for additional […]. Insulin was added during the last 30 min of incubation before the dGlc uptake assay.
FIG. 11A: Effect of LY-249002, a PI3-kinase inhibitor, on insulin, D-xylose, EH-101 and EH-114-mediated glucose uptake. L6 myotubes were treated as described in the legend to FIG. 10. The glucose concentration in the culture medium was 23.0 mM. The concentration of LY-294002 was 60 μM. At the end of incubation the cells were taken for the standard dGlc uptake assay. Mean±SEM, n=3.
(§3) GLUT-1 and GLUT-4 mediate glucose entry into L6 myotubes. It is established that GLUT-4 is translocated effectively and rapidly to the plasma membrane upon insulin treatment. The inventors looked at the effect of 3-O-propyl-D-xylose EH-114) and 1,3-O-dimethylxylopyranoside (EH-101) on the total cell content and plasma membrane abundance of these transporters in the absence or presence of insulin. L6 myotubes were maintained at 5.0 or 23.0 mM glucose for 48 hr and EH-114 and EH-101 were present during the last 24 hr. The cells were then taken for the standard [^3H]-2-deoxy-D-glucose uptake assay and for the biotinylation procedure for determining the amount of GLUT-1 and GLUT-4 in the plasma membrane. High glucose levels decreased the hexose transport rate by ˜50%. Insulin augmented the transport nearly 2-fold in both cases. EH-114 and EH-101 increased the transport rate 2-3-fold in the absence of insulin. Together with insulin the uptake rate was increased nearly 3-fold.
The inventors also tested the hypothesis that the active D-xylose derivatives augment the hexose transport capacity in L6 myotubes by translocating GLUT-4 to the plasma membrane not via the common insulin-regulated pathway. For this experiment, a selective inhibitor of the enzyme PI3-kinase, LY-249002, which is a key enzyme in the cellular transduction mechanism of insulin, was utilized. […] These findings also agree well with the longer onset of action of these derivatives as compared to the rapid action of insulin. Similar results were obtained when LY-249002 was present together with the derivatives throughout the entire incubation period.
as §1

[8] = tested on: GLUT-4; assay: Cell surface biotinylation and western blot of GLUT-4 in L6 myotubes; type: cell-based, rat; details: for translocation of GLUT-4 to the plasma membrane: L6 myotubes, xylose derivatives in the absence of insulin, insulin 500 nM (FIG. 10)
Description: as §2, §3
Surface biotinylation of the cells was performed as previously described [Sasson et al (1997), Diabetologia, 40, 30-398].

[9] = tested on: PKB; assay: PKB phosphorylation immunoblot in L6 myotubes; type: cell-based, rat; details: 23.0 mM glucose; 100 nM insulin, 20 mM xylose, 5 mM EH-114 or 250 μM EH-40, up to 24 hrs (FIG. 11B)
Description: FIG. 11B: Effects of insulin D-xylose and xylose derivatives on PKB phosphorylation. L6 myotubes were maintained at 5.5 mM or 23.0 mM glucose. The latter were treated with 100 nM insulin, 20 mM xylose, 5 mM EH-114 or 250 μM EH-40 up to 24 hrs. At the indicated times treated myotubes were collected, homogenized and lysed and the soluble protein fraction was isolated. The control myotubes were collected at the end of the 24 hr incubation period. Equal amounts of proteins of the various treated myotubes were separated on SDS-PAGE and immunoblotted with a specific antibody against phospho-Axt1/PKBα (Ser473). In order to test whether xylose derivative activate insulin transduction elements downstream of PI3K, the inventors tested the state of PKB phosphorylation, as shown in FIG. 11B.

[10] = tested on: GLUT-1; assay: Cell surface biotinylation and western blot of GLUT-1 in L6 myotubes; type: cell-based, rat; details: data not shown
Description: as §3
FIG. 10 presents the western blots showing the results of such a representative experiment. Under hyperglycemic conditions the total cell content of GLUT-4 was reduced as well as its plasma membrane abundance [lanes 1 & 2 for Total cell content and PM (plasma membrane) fractions]. […]

In the case of `CCSC(SCC)[C@@H]1OC(c2ccccc2)O[C@@H]2COC(c3ccccc3)O[C@@H]21` (stereo partly drawn) [EH-36, 2,4:3,5 di-O-benzylidene-D-xylose-diethyl-dithioacetal], the “Fold Increase of Glucose Uptake” value [1] is reported as 2.0 fold, the onset of action [1] is reported as 24 to 48 h and the “time to maximal stimulatory effects” value [1] is reported as at most 48 h. For the same compound, the EC50 [1] was 2 µM, the ECmax [1] was 10 µM and the “potency relative to D-xylose” value ([1]; more potent than xylose) was 2000 fold. The blood glucose level ([2]; 400 μg s.c. in sesame oil twice a day (FIG. 13)) was “reduced their blood glucose level to the normoglycemic range”, the “duration of effect after treatment” value ([2]; after the last injection) was “at least 3 weeks” and the “blood glucose levels after treatment stopped” value ([2]; left untreated for four additional weeks after 9-day injection) was 250 to 350 mg/dL. The “appearance of animals after treatment stopped” value ([2]; untreated for four additional weeks) was “looked normal and healthy”, the “blood glucose level of non-diabetic mice” value [3] was “Neither EH-36 nor the vehicle changed significantly” and the “average AUC of GTT” value ([4]; 1.5 mg s.c. twice a day for 9 days, glucose 2 gr/kg i.p. on 10th day, ±SEM) was 6.42±1.62 mg glucose/ml/hr. The “improvement of glucose clearance” value ([4]; following a 9-day treatment) was about 50%, the serum concentration [5] was 1010 µg/mL and the solubility [6] was “very limited solubility in most common organic solvents”.

With `CCCO[C@@H]([C@H](O)CO)[C@@H](O)C=O` [EH-114, 3-O-propyl-D-xylose] the “Fold Increase of Glucose Uptake” value [1] was 2.6 fold, the EC50 [1] was 3000 µM and the ECmax [1] was 4500 µM. The “duration of activity following removal from the culture media” value ([1]; after being washed from cell cultures) was 24 h, the “effect of PI3-kinase inhibitor LY-249002 on the substance's stimulation of hexose transport” value [7] was “failed to affect” and the “increase of uptake rate together with insulin” value ([7]; L6 myotubes, compound during last 24 hr plus insulin) was about 3 fold. The “total cell content of GLUT-4” value ([8]; L6 cells exposed to 23.0 mM glucose (FIG. 10)) was “increased the total content of the transporter”, the “translocation of GLUT-4 to the plasma membrane” value [8] was “induced significant translocation of GLUT-4 to the plasma membrane” and the PKB phosphorylation [9] was “failed to induce significant phosphorylation”.

For “Insulin: insulin, hormone used as positive control for glucose transport stimulation [reference compound]”, the “effect of PI3-kinase inhibitor LY-249002 on the substance's stimulation of hexose transport” value [7] was “eliminated the stimulatory effect”, the “augmentation of transport by insulin” value ([7]; at 5.0 and 23.0 mM glucose) was about 2 fold and the “translocation of GLUT-4 to the plasma membrane” value [8] was “translocation of GLUT-4 to the plasma membrane”. The “effect on GLUT-1 (blots with anti GLUT-1 antibody)” value [10] was “no effect” and the PKB phosphorylation [9] was “prominent, but transient phosphorylation”.

For `CCSC(SCC)[C@@H]1OC(c2ccccc2)O[C@H](CO)[C@@H]1O` (stereo partly drawn) [EH-40, 2,4-benzylidene-D-xylose-diethyl-dithioacetal], the “effect of PI3-kinase inhibitor LY-249002 on the substance's stimulation of hexose transport” value [7] was “abolished” and the PKB phosphorylation [9] was “time-dependent and sustained phosphorylation”.
